# Data published in US8815270B2, “Methods and compositions for treating ectoparasite infestation” (Piedmont Pharmaceuticals, LLC, priority 2002, dated 2014).
# Test system: adult body louse, Pediculous humanus humanus
# Description: In this embodiment, the effectiveness of pediculicidal materials in the formulation of Example 1 is examined against the adult body louse, Pediculous humanus humanus. But this procedure can be used to test the effectiveness of a composition against the head louse, fleas, ticks, or any ectoparasite. In the following description, “morbid” means that the louse is unable to move towards heat 1 h after treatment. The parasite is sick but not necessarily dying, and may recover to resume normal behavior within 24 hours. By “moribund” is meant the parasite is unable to move towards heat (and therefore food) 24 hours after treatment and is dying.
# Four replicates of 25 lice each, plus five control replicates were examined. A plastic or glass vial, screened at the bottom with 20-mesh was used as the dipping vessel. A plunger, made from a plastic rod, and a circular screen was fitted inside the vial.
# 25 adult lice of mixed sexes were placed in the bottom of a test container. A screened plunger was inserted to keep the lice from floating to the surface. The pediculicide material to be tested was placed in a 100-ml beaker and the beaker introduced into a waterbath maintained at 32° C. The test container was placed into the pediculicide in the 100-ml beaker and the lice kept under the pediculicide for 1, 4 or 10 minutes. The test container was removed at end of the desired dipping period. […]
smiles,measurement,value
"CCCCCCCCCCCCCC(=O)OC(C)C [isopropyl myristate, 1-methylethyltetradecanoate]",lice killed (mortality) after 1 hour,about 82%
same,mortality of lice after 24 hours,100%
